Common to all, as to format: cell-based
Series [1] has as its system plant bodies. Nature of the series: Influence of agent concentration on growth of plant (solid culture medium, FIG. 6). Particulars: 30 days. An excerpt: The influence of a change in the concentrations of the agents used for sterilizing the culture medium on the growth of plants was investigated. The culture condition in this experiment was as follows:
Culture medium components: solid culture medium dosed with Otsuka-A
Number of plant bodies: 10
Numerical values: average±standard deviation
Sterilizing method: one-time dosing mode
Inoculating method (Culturing method): the method shown in FIG. 4 was used, with SE-P2000Cl140/SE-P2000Cl140 as the first/second microbicidal liquids, respectively.
In FIG. 6, the “Autoclave (Conventional Method)” indicates comparative examples, in which an explant which had undergone a microbicidal treatment in an autoclave was placed in a liquid culture medium and cultured in a clean bench.

In series [2] the test system is microbial colony formation (bacteria, filamentous fungi). Briefly: Microbial recontamination of sterilized solid culture medium after solidification (FIG. 8). The method, then: A sterilized culture medium (Otsuka-A solid culture medium) was placed in 50 test tubes held in a tube stand and kept intact on a standard laboratory table (at temperatures of 14-24° C.), and the temporal change in the degree of microbial colony formation was investigated.

Series [3] relates to An (filamentous fungus, presumed to be Aspergillus niger complex). Nature of the series: Sterilizing effect of microbicidal liquids in the inoculating process (FIG. 9), An. To be noted: bacteria inoculated on potato explant, explant treated, 14 days. The method, then:
(§1) An experiment was conducted to determine how the sterilizing effect after inoculation is related to the concentrations and combination of the agents used in the microbicidal liquid for explants and the microbicidal liquid for culture vessels. The experimental condition was as follows:
(§2) Solid culture medium: dosed with Otsuka-A
(§3) Sterilizing method: autoclave
(§4) Method of inoculation of bacteria: on culture medium surface [as for “B5” and “S3”, 50 μL per test tube of the bacterial suspension was dropped onto the surface of the culture medium; and as for “An”, 10 mg per test tube of either a conidial powder or a conidial powder diluted with a-starch to a predetermined dilution ratio was poured onto the culture medium]; or on explant [as for “B5” and “S3”, the explant was immersed in the bacterial suspension (whereby 10 μL per explant was attached); and as for “An”, the explant was coated with either a conidial powder or a conidial powder diluted with a-starch to a predetermined dilution ratio (whereby 5 mg per explant was attached)]

For series [4], the system named is B5 strain, presumed to be Bacillus subtilis. Briefly: Sterilizing effect of microbicidal liquids in the inoculating process (FIG. 9), B5. Particulars: inoculated on potato explant; explant treated with microbicidal liquid (Cap or Nata 10000 mg/L or higher). On the procedure:
as §1, §2, §3, §4

Series [5] deals with S3 strain, presumed to be Serratia sp. Briefly: Sterilizing effect of microbicidal liquids in the inoculating process (FIG. 9), S3. Particulars: inoculated on potato explant; explant treated with microbicidal liquid (Ox 200 mg/L or higher; Nata 10000 mg/L or higher). The method, then:
as §1, §2, §3, §4

For series [6], the system named is external bacteria. Nature of the series: Occurrence rate of microbial contamination of liquid culture medium after sterilization (FIG. 14). To be noted: explants inoculated in a common room, no bacteria inoculated. On the procedure: The contamination rate by external bacteria after sterilization of a liquid culture medium was investigated. In any cases, the result was obtained under the condition that the inoculation of explants was performed in a common room with no bacteria inoculated. […] The microbial contamination rate increased when any one of the following agents was omitted: SE-P, Nisin, Ox, Nata, Cap, Imp10 and Cl7.

Bounds are passed on as bounds.

Regarding `C[C@@H]1C/C=C/C=C/C=C/C=C/[C@H](O[C@@H]2O[C@H](C)[C@@H](O)[C@H](N)[C@@H]2O)C[C@@H]2O[C@](O)(C[C@@H](O)C[C@H]3O[C@@H]3/C=C/C(=O)O1)C[C@H](O)[C@H]2C(=O)O` [Natamycin], the “concentration that did not negatively affect growth” value in series [1] is at most 100 µg/mL. Further, the “open storage of the culture” value in series [2] (Natamycin in addition to P1670, Nisaplin and wettable powder STARNER, no ZonenC) is listed as “open storage of the culture was not possible”. Also, the “newly invasion of filamentous fungi” value in series [2] (used in addition to P1670, Nisaplin and wettable powder STARNER) is on record as “dramatically decreased”. Also, the “concentration in microbicidal liquid preventing An colony formation to some extent” value in series [3] is listed as at least 10000 mg/L. For the same compound, the “formation of B5 colonies” value in series [4] was “could not prevent”. Further, the “formation of S3 colonies” value in series [5] is “could not prevent”. In series [6], the “microbial contamination rate when the agent was omitted” value was “increased”.

As for Egg-white lysozyme, in series [6], the “need of adding the agent to prevent microbial contamination” value was “not necessary”.
